Molecular target: T1, β-xylosidase (SSO3032) (Saccharolobus solfataricus, UniProt Q97UI4)
T1 construct: full gene cloned in pSVAmalFX-Nt6H (His6 tag)
Assay: colorimetric pNP release at […] nm
Assay type: biochemical
Settings: 1 mM pNPX, 50 mM sodium acetate pH 6.0, 90 °C, 10 min

T1 sequence (Q97UI4 entry or part of it): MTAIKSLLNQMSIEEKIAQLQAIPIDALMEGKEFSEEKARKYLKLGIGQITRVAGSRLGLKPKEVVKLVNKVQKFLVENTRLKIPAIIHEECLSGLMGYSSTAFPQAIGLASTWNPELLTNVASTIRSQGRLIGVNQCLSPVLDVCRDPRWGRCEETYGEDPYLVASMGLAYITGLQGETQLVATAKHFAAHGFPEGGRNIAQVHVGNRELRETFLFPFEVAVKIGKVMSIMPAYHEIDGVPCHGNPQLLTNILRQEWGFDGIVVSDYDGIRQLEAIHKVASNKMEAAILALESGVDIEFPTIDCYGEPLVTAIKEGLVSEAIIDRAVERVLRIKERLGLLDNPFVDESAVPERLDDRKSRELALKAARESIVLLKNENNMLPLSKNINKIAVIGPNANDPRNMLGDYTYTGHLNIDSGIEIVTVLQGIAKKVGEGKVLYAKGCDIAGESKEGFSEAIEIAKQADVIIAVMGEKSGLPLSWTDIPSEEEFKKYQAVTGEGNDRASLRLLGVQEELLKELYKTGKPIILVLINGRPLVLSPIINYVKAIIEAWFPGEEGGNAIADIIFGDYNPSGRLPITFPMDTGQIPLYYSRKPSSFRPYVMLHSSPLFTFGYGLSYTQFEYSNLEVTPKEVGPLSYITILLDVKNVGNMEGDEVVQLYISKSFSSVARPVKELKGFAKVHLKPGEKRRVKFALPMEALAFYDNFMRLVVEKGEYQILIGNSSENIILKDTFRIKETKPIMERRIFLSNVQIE

## O=[N+]([O-])c1ccc(O[C@@H]2OC[C@@H](O)[C@H](O)[C@H]2O)cc1 [pNPX]
  colorimetric pNP release at 420 nm: performed with 4-nitrophenol-β-D-xylopyranoside (pNPX) as a substrate

Reference: article PMC9628888, “Engineering of Sulfolobus acidocaldarius for Hemicellulosic Biomass Utilization” (Journal of Microbiology and Biotechnology, 2022)
